Data on twelve molecules can be found in patent US5470714A, “One-step free fatty acid determination method” (Lidak Pharmaceuticals, priority 1993, dated 1995).

Positions count from the first letter of the chain named. Read-outs that look alike come from different tables or passages of the source.

Test [1] concerns the target T1, ADIFAB (Rattus norvegicus, UniProt P02693).
T1 construct: acrylodan covalently attached at Lys27 (chemical label, no substitution)
T1 sequence (P02693 1-132): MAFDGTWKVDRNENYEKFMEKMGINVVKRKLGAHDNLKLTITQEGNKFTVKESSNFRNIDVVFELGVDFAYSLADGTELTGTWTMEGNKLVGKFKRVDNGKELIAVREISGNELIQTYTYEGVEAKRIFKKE
Briefly: Specificity of ADIFAB: effect of potential competitor molecules on ADIFAB fluorescence and on oleic acid binding. To be noted: up to maximum concentrations: lysolecithin 100mM, sphingosine 100mM, bilirubin 50mM, leukotriene C4 32mM, 5-HETE 10mM, prostaglandin D2 5mM; from ethanol 0.1% by volume. The procedure: ADIFAB is highly specific for long chain FA. […] The interaction between ADIFAB and a variety of molecules that are either formed in association with FA or coexist with FA in plasma and might therefore compete with FA for binding to ADI FAB were examined. The following molecules were investigated up to the maximum concentrations indicated in parenthesis; lysolecithin (100mM), sphingosine (1 00mM), bilirubin (50mM), leukotriene C4 (32mM), (5S)-5- Hydroxy-6,8, 11,14-eicasatetaenoic acid (5-HETE) (10mM), and prostaglandin D2 (5mM). […] (Since these molecules are water insoluble they were added to ADIFAB from ethanol, at 0.1% by volume, which itself causes an Ro increase by about 12% but has no effect on the Kd for oleate binding. )

The target of test [2] is ADIFAB (Acrylodan derivatized native rat I-FABP, Lys27) (Rattus norvegicus, UniProt P02693). The test can be described thus: biochemical. In kind it is binding. To be noted: for Kd relative to oleate (fold greater than oleate): normalized to oleate. The procedure:
In most of the studies FFA was added to ADIFAB, in a buffer (A) consisting of 10 Mm HEPES, 150 Mm NaCI, 5 mM KCI, and 1 mM NaHPO4 at pH 7.4, as the sodium salt of the fatty acid. […] FA bind to most surfaces and values of the total FA concentration ([FAT]) were corrected for FA binding to cuvette and container walls. This binding was determined using trace amounts of […] labeled FA and, separately, ADIFAB florescence to determine the degree of FA loss upon transfer from one container to another. […] To minimize FA binding to surfaces, the monomer concentrations of stock solutions of the Na salts were maintained at pH >9.0 in water, and were warmed to >37° C. just prior to use. The polyunsaturated forms of the FA are subject to oxidation and it was observed that dissociation constants for binding to ADIFAB (Kd) were considerably greater for the oxidized FA. Care was taken to reduce the exposure of the FA salts to oxygen (all handling was carried out under Argon) and to store them at -20° C.
The concentrations of FA in the aqueous phase (FFA) and FA bound to ADIFAB ([FAb ]) were determined from the ratio of fluorescence emission intensities at 432 and 505 nm (R). The values FFA and [FAb ]were related to the ratio of intensities essentially by the method of Grynkiewicz et. al. (Grynkiewicz, G., Poenie, M., & Tsien, R. Y. (1985) J. Biol. Chem. 260, 3440-3450), according to which:
[FAb ]=[ADIFABtotal ]Q(fr)/(1-fr+FRQ) FR
are the ADIFAB intensities with zero and saturating concentrations of FFA, Ro is the intensity ratio in the absence of FFA and Rmax is the value when ADIFAB is saturated.
Because of the limiting solubility of long chain FA in aqueous solution Rmax and Q cannot. in general, be determined directly. To determine Rmax and Q, ADIFAB was titrated with lauric acid (12:0) whose high CMC allowed maximum R values (~10-11) to be measured that were considerably greater than with longer chain FA. From this titration a linear correlation was found between Q and R. Using Q, R pairs predicted by this relationship, a two parameter (Kd and Rmax) least squares analysis of each FA was done using the equation for equilibrium binding;
1/[FAb ]=(Kd/[ADIFAB])/FFA+1/[ADIFAB] (3)
Optimal Q and Rmax values obtained in this analysis were in the range 17-22 and 10 and 13, respectively, with average values of 19.5 and 11.5. Final Kd values for each FA were then determined by least squares analysis of equation (3) with Q and Rmax fixed at 19.5 and 11.5, respectively.
Fluorescence measurements to monitor Acrylodan fluorescence in various solvents, to monitor adduct formation, and to obtain complete spectra were carried out using an SLM 8000C fluorometer. Measurements of the 505/432 intensity ratios (R values) used to monitor the FFA titrations of ADIFAB were done with either the SLM 8000C or a Perkin-Elmer MPF-2A fluorometer.
ADIFAB dose response to FFA and FFA aggregate formation was measured. The ratio of fluorescent intensities at emission wavelengths of 505/432 nm were measured as a function of added Na salts of several FFA. Resulting data are depicted graphically in FIGS. 6A, 6B and 6C. Conditions were similar to those used in FIG. 3 except that 100mM EGTA was used in obtaining the data depicted in FIGS. 6A and 6B, while the data depicted in FIG. 6C was obtained using 1 mM CaCl2. Measured R values were used to determine FFA and [FFAb]using equations (1) and (2). The solid curves through the data of FIGS. 6A and 6C represent best fits of equation (3) obtained using a non-linear least squares algorithm. Aggregate formation was detected by measuring 90° light scattering from FFA in the buffer of FIG. 3 containing no added calcium and titrated with the Na salts of the FFA as described above, see FIG. 6B. The smoothed curves through the data, intended to guide-the-eye, indicate that aggregate formation, as detected by a sharp increase in light scattering, is approximately coincident with the maximum R value observed in the experiment related to FIG. 6A. […]

Test [3] can be described thus: Fluorescence response of fluorescent-FABP probes to fatty acid binding. In kind it is biochemical. The text has this: Principles and exemplary methods for constructing probes as described and defined herein and methods for determining FFA levels are described in detail below. Using these principles fourteen different fluorescent-FABP derivatives have been constructed. This has been done using 3 different native FABPs (rat intestine (I-FABP), human adipocyte (A-FABP), and human heart (H-FABP)) plus 4 site-specific mutants of two of these (I-FABP, (Thr83Cys83, Thr81Cys81, Lys27Cys27 and H-FABP, Thr27Lys27), and these proteins have been derivatized with 4 different fluorophores (acrylodan, danzyl aziridine, 4-[N-[(2-iodoacetoxy)ethyl]-N-methylamino]-7-nitrobenz-2-oxa1,3-diazole ester (IANBDE), 4-[N-[(2-iodoacetoxy)ethyl]-N-methylamino]-7-nitrobenz-2-oxa-1,3-diazole these derivatives can serve as FFA probes, to some degree. To date, however, ADIFAB remains the one that has optimal properties for current applications. Obviously, by occupying, partially, the binding site with a fluorophore, FA must compete for its site and therefore the FA binding constant for the FABP may be altered from the native protein. This is indeed the case for ADIFAB for which the Kd is about 10 fold greater than for the native protein. So long as FA can bind, however, the derivatized molecule can still function as a FFA probe and so long as the probe's dynamic range is sufficient (as it is for ADIFAB, IANBDE and IANBDA) then FFA levels over a wide range, including those that are physiologic, can be measured.
The Cys27 mutant of I-FABP (Lys27 to Cys27) with acrylodan, IANBDE and IANBDA have also been labeled using the technique described. […] This is the behavior predicted from the construction principles set forth herein, and reflects the shorter tethering arm to Cys27 as compared to Lys27 which prevents the deeper insertion into the binding site that is observed in the Lys27 derivative. […] Thus, those skilled in the art can with considerable confidence predict whether protein modifications and/or choice of label will result in a FFA responsive probe.
Site-directed mutagenesis was used to introduce a cysteine residue at positions 82 or 84, in place of the threonine residues that are normally at this position. Mutagenesis was carried out by annealing a synthetic prirner with a single mismatched base to the above derived expression vector. The primer was extended and ligated in vitro, and the resulting heteroduplex was used to transfect the host strain. The transfected host was screened for the mutated DNA by hybridization with the mutating oligonucleotide. Mutated plasmid DNA was isolated, retransformed into the host strain, and its structure confirmed by sequencing the recombinant DNA in regions defined by probes flanking the mutated region. This modified protein was expressed in the same system and purified by the same methods as for the native protein. Typical yields of purified protein were approximately 50 mg/liter cell culture. The mutated I-FABP protein was fluorescently derivatized by inserting a fluorescent group (which reacts specifically with free SH groups) at the newly created cysteine residue. The cysteine residue was inserted at positions 82 (replacing a threonine residue) and/or at residue 84 (also a threonine residue) since both these positions face outward from the FFA binding pocket but are in close proximity to the tryptophan at position 83 (about 3.5Å lateral separation along the b strand and about 10Å vertical separation between the centers of the tryptophan and fluorescent residues). […] Thus, either the direct emission of the fluorescent group and/or the rate of resonance energy transfer between Trp83 and the fluorescent group was postulated to change. In a non-limiting prior specific example, the dansyl derivative ACRYLODAN®(6-acryloly-2dimethylamenonaphthalene) was used to modify the mutated FABP and this probe was designated FAD508.
ADIFAB dose response to FFA and FFA aggregate formation was measured. […]

[4] abbreviates: FA-ADIFAB Dissociation Constants, Kd, no added calcium, FIG. 6A, buffer A pH 7.4.

Consider `CCCCC/C=C\C\C=C/C=C/C=C/[C@@H](SC[C@H](NC(=O)CC[C@H](N)C(=O)O)C(=O)NCC(=O)O)[C@@H](O)CCCC(=O)O` [leukotriene C4], for which, in test [1], the “change in ADIFAB fluorescence by the molecule itself” value (“change in ADIFAB fluorescence” for short) was “none of these molecules, either themselves cause a change in ADIFAB fluorescence” and the “displacement of oleic acid binding to ADIFAB” value (“displacement” below) is “nor do they displace oleic acid binding to ADIFAB”.

As to lysolecithin, in test [1], the “change in ADIFAB fluorescence” value is listed as “none of these molecules, either themselves cause a change in ADIFAB fluorescence” and the “displacement” value is reported as “nor do they displace oleic acid binding to ADIFAB”.

With `CCCCCCCCCCCCC/C=C/[C@@H](O)[C@@H](N)CO` [sphingosine], in test [1], the “change in ADIFAB fluorescence” value is on record as “none of these molecules, either themselves cause a change in ADIFAB fluorescence” and the “displacement” value is recorded as “nor do they displace oleic acid binding to ADIFAB”.

As for `CC/C=C\C/C=C\C/C=C\CCCCCCCC(=O)O` [LINOLENATE, linolenate], in test [2], the “ADIFAB sensitivity to FFA levels (lowest detectable level)” value is recorded as “about 20 nM” and the “Kd relative to oleate (fold greater than oleate)” value was around 8.9 fold. The Kd in test [2] (setting [4]) came to 2500 ± 100 nM.

Regarding `CCCCC/C=C\C/C=C\C/C=C\C=C\[C@@H](O)CCCC(=O)O` [5-HETE, (5S)-5-Hydroxy-6,8, 11,14-eicasatetaenoic acid], in test [1], the “change in ADIFAB fluorescence” value is “none of these molecules, either themselves cause a change in ADIFAB fluorescence” and the “displacement” value is recorded as “nor do they displace oleic acid binding to ADIFAB”.

As for `CCCCCCCCCCCC(=O)O` [laurate], in test [2] (laurate (12:0), binding detectable but considerably weaker, read-out: Kd (shorter chain FA, bound)), the Kd is above 200000 nM.

With `C=CC1=C(C)/C(=C/c2[nH]c(Cc3[nH]c(/C=C4\NC(=O)C(C)=C4C=C)c(C)c3CCC(=O)O)c(CCC(=O)O)c2C)NC1=O` [bilirubin], in test [1], the “change in ADIFAB fluorescence” value is given as “none of these molecules, either themselves cause a change in ADIFAB fluorescence” and the “displacement” value is on record as “nor do they displace oleic acid binding to ADIFAB”.

On to `CCCCC/C=C\C/C=C\CCCCCCCC(=O)O` [LINOLEATE, linoleate], for which the Kd in test [2] (setting [4]) came to 970 ± 20 nM. Moreover, the “Kd relative to oleate (fold greater than oleate)” value in test [2] was around 3.5 fold.

Consider `CCCCC[C@H](O)/C=C/[C@H]1C(=O)C[C@H](O)[C@@H]1C/C=C\CCCC(=O)O` [prostaglandin D2], for which, in test [1], the “change in ADIFAB fluorescence” value is recorded as “none of these molecules, either themselves cause a change in ADIFAB fluorescence” and the “displacement” value was “nor do they displace oleic acid binding to ADIFAB”.

`CCCCC/C=C\C/C=C\C/C=C\C/C=C\CCCC(=O)O` [ARACHIDONATE, arachidonate]: the Kd in test [2] (setting [4]) turned out to be 1630 ± 30 nM; in test [2] (Kd in the presence of calcium, 1 mM calcium), 1670 nM. Also, in test [2], the “Kd relative to oleate (fold greater than oleate)” value is around 5.8 fold.

B1: ADIFAB: Acrylodan derivatized recombinant native protein (I-FABP), labeled at Lys27 (conjugate, UniProt P02693 2-132, looked up)
Fatty acid-binding protein, …: AFDGTWKVDRNENYEKFMEKMGINVVKRKLGAHDNLKLTITQEGNKFTVKESSNFRNIDVVFELGVDFAYSLADGTELTGTWTMEGNKLVGKFKRVDNGKELIAVREISGNELIQTYTYEGVEAKRIFKKE
modifications: acrylodan label at Lys27
For the molecule B1, in test [3] (ADIFAB versus native I-FABP), the “Kd of FA relative to the native protein (fold greater)” value is given as “about 10 fold”. For the same molecule, the “increase in the 505/432 emission ratio on addition of FFA” value in test [3] (FIG. 6A, up to) was at most 25 fold.

B2: IANBDE derivative: Cys27 mutant of I-FABP (Lys27 to Cys27) labeled with IANBDE (conjugate, UniProt P02693 2-132, looked up, variant K27C)
Fatty acid-binding protein, …: B1 Fatty acid-binding protein, … with K27C
modifications: IANBDE (NBD ester) label
Consider B2, for which the “responsiveness of the probe to FA binding, in words” value in test [3] is “among the most sensitive”. Moreover, the “reduction in intensity at 550 nm” value in test [3] (with 1 mM oleate, I-FABP Cys27 mutant) is on record as 60%.
